Key:
Saccharomyces cerevisiae = assay: Inhibition of Saccharomyces cerevisiae alpha-glucosidase using PNPG as substrate at 200 uM preincubated for 10 mins followed by substrate addition measured after 10 mins
Rattus norvegicus = organism: Rattus norvegicus; assay: Inhibition of rat intestinal alpha-glucosidase using PNPG as substrate at 200 uM after 30 mins
[1] = molecular target: T1, Pancreatic alpha-amylase (Sus scrofa) (UniProt P00690); assay: Inhibition of pig pancreas alpha-amylase using potato starch as substrate at 200 uM after 15 mins
T1 sequence (whole entry): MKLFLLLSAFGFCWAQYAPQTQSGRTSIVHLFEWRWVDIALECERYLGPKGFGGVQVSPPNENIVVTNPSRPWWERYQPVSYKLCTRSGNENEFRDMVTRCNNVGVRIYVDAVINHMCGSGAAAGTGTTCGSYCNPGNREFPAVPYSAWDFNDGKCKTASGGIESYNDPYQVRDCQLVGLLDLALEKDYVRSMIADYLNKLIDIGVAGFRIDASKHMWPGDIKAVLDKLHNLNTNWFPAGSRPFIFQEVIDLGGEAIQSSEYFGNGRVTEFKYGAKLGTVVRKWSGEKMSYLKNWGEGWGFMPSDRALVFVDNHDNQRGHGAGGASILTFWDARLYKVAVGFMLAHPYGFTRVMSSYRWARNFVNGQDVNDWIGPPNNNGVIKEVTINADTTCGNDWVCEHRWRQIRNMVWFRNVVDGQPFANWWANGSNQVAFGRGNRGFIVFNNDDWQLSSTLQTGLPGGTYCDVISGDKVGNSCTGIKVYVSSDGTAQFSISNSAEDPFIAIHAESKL

[2] = Inhibition of Saccharomyces cerevisiae alpha-glucosidase using PNPG as substrate preincubated for 10 mins followed by substrate addition measured after 10 mins

Compound | inhibition (Saccharomyces cerevisiae) [%] | inhibition (Rattus norvegicus) [%] | inhibition [1] [%] | IC50 [2] [µM]
CC1(C)CC[C@]2(C(=O)O)CC[C@]3(C)C(=CC[C@@H]4[C@@]5(C)C[C@@H](O)[C@H](O)[C@@](C)(CO)[C@@H]5CC[C@]43C)[C@@H]2C1 | 48.8 | 4.7 | 9.7 | –
CC1(C)CC[C@]2(C(=O)O)CC[C@]3(C)C(=CC[C@@H]4[C@@]5(C)C[C@@H](O)[C@H](O)[C@@](C)(COC(=O)[C@H](CC(=O)O)C[C@H]6c7c(cc(O)c(O)c7O)C(=O)O[C@@H]6C(=O)O)[C@@H]5CC[C@]43C)[C@@H]2[C@@H]1O | 40.1 | 8.5 | 3.3 | –
C[C@H]1O[C@H](O[C@H]2[C@H](O)[C@@H](O)[C@@H](O[C@H]3[C@H](O)[C@@H](O)C(O)O[C@@H]3CO)O[C@@H]2CO)[C@H](O)[C@@H](O)[C@@H]1N[C@H]1C=C(CO)[C@@H](O)[C@H](O)[C@H]1O (stereo not given in full) [ACARBOSE] | 58.6 | 69.3 | 82.1 | 174
CC1(C)CC[C@]2(C(=O)O[C@@H]3O[C@H](CO)[C@@H](O)[C@H](O)[C@H]3O)CC[C@]3(C)C(=CC[C@@H]4[C@@]5(C)C[C@@H](O)[C@H](O)[C@@](C)(COC(=O)[C@@H](CC(=O)O)C[C@H]6c7c(cc(O)c(O)c7O)C(=O)O[C@@H]6C(=O)O)[C@@H]5CC[C@]43C)[C@@H]2[C@@H]1O | 8.2 | 6.7 | 4.4 | –
CC1(C)CC[C@]2(C(=O)O)CC[C@]3(C)C(=CC[C@@H]4[C@@]5(C)C[C@@H](O)[C@H](O)[C@@](C)(CO)[C@@H]5CC[C@]43C)[C@@H]2[C@@H]1O | 4.4 | 2.8 | 1.7 | –
CC1(C)CC[C@]2(C(=O)O)CC[C@]3(C)C(=CC[C@@H]4[C@@]5(C)C[C@@H](O)[C@H](O)[C@@](C)(CO)[C@@H]5[C@H](O)C[C@]43C)[C@@H]2C1 | 21 | 10.1 | 7.5 | –
CC1(C)CC[C@]2(C(=O)O)CC[C@]3(C)C(=CC[C@@H]4[C@@]5(C)C[C@@H](O)[C@H](O)C(C)(C)[C@@H]5CC[C@]43C)[C@@H]2[C@@H]1O | 48.2 | 7.8 | 6.2 | –

Continued, values first:

inhibition (Saccharomyces cerevisiae) [%] | inhibition (Rattus norvegicus) [%] | inhibition [1] [%] | IC50 [2] [µM] | Compound
20.7 | 9.7 | 5.6 | – | CC1(C)CC[C@]2(C(=O)O[C@@H]3O[C@H](CO)[C@@H](O)[C@H](O)[C@H]3O)CC[C@]3(C)C(=CC[C@@H]4[C@@]5(C)CC[C@H](O)[C@@](C)(CO)[C@@H]5CC[C@]43C)[C@@H]2[C@@H]1O
25.1 | 7.3 | 2.4 | – | CC1=C2C3=CC[C@@H]4[C@@]5(C)C[C@@H](O)[C@H](O)[C@@](C)(CO)[C@@H]5CC[C@@]4(C)[C@]3(C)CC[C@@]2(C(=O)O[C@@H]2O[C@H](CO)[C@@H](O)[C@H](O)[C@H]2O)CC[C@H]1C
4 | 6.4 | 5.9 | – | CC1(C)CC[C@]2(C(=O)O[C@@H]3O[C@H](CO)[C@@H](O)[C@H](O)[C@H]3O)CC[C@]3(C)C(=CC[C@@H]4[C@@]5(C)C[C@@H](O)[C@H](O)[C@@](C)(CO)[C@@H]5CC[C@]43C)[C@@H]2C1
3.1 | – | – | – | CC1(C)CC[C@]2(C(=O)O[C@@H]3O[C@H](CO)[C@@H](O)[C@H](O)[C@H]3O)CC[C@]3(C)C(=CC[C@@H]4[C@@]5(C)C[C@@H](O)[C@H](O)[C@@](C)(CO)[C@@H]5CC[C@]43C)[C@@H]2[C@@H]1O
36.1 | 7.8 | 7.2 | – | CC1(C)CC[C@]2(C(=O)O[C@@H]3O[C@H](CO)[C@@H](O)[C@H](O)[C@H]3O)CC[C@]3(C)C(=CC[C@@H]4[C@@]5(C)C[C@@H](O)[C@H](O)C(C)(C)[C@@H]5CC[C@]43C)[C@@H]2[C@@H]1O
